What was measured:
adult H. irritans exigua = experiment: Adult H. irritans exigua feeding assay (blood meal assay); format: in vivo
Experimental: Adult H. irritans exigua Feeding Assay
A blood meal assay was used to determine the LC50 for test compound (3-bromo-1-(3-chloro-2-pyridinyl)-N-[4-cyano-2-methyl-6-[(methylamino)carbonyl]phenyl]-1H-pyrazole-5-carboxamide) on adult H.irritans exigua. Six (6) serial dilutions of the test compound were prepared in decoagulated bovine blood that was stored refrigerated. Ivermectin was included as a positive control compound and a negative control was included in each assay. Flies were collected with a net immediately before each assay from yarded commercial cattle. About 100 adults were introduced into a mesh cage (30×30×30 cm) containing one cotton gauze (4×4×1 cm) soaked in one blood/insecticide concentration. There were 3 replicate cages of each blood/insecticide concentration. Blood gauzes were replaced every 12 hours. The untreated control cages received untreated decoagulated blood. All cages were labelled and stored for 72 hours at 25-27° C. in the dark at ambient relative humidity (70-85%). […] Data was subjected to log-probit analysis to determine the LC50 if there is a dose response in the assay.

[1] = tested on: Brown Dog Ticks (R. sanguineus); experiment: In vivo evaluation against artificial infestations with brown dog ticks on dogs; details: for Tick efficacy (%) compared to the untreated control: topical line-on, test compound 60 mg/kg in NMP
From the text: (§1) In vivo evaluation Against Artificial Infestations With Cat Fleas (C. felis) and Brown Dog Ticks (R. sanguineus) on Dogs
(§2) Twenty five dogs were used in this study that investigated the efficacy of test compound (3-bromo-1-(3-chloro-2-pyridinyl)-N-[4-cyano-2-methyl-6-[(methylamino)carbonyl]phenyl]-1H-pyrazole-5-carboxamide) against fleas and ticks. Two groups (one treated and one untreated) of five dogs were used to evaluate the flea efficacy whilst two groups of five dogs (one treated and one untreated) were used to investigate the tick efficacy. The dogs in the respective groups were infested weekly with 40 unfed adult ticks and 100 cat fleas. One group was treated with ADVANTIX and served as a positive control. The dogs in this group were infested simultaneously with fleas and ticks. Test compound was formulated in NMP. The treatment was applied topically via syringe on the dorsal line of the animals as a line-on at 60 mg/kg dose rate. The efficacy of the compound was assessed by weekly tick and flea counts. The weekly counts generated in the treated groups were compared to the positive and negative untreated control (UTC) group counts to evaluate efficacy of Test compound.

Cat Fleas (C. felis) = experiment: In vivo evaluation against artificial infestations with cat fleas on dogs; details: for Flea efficacy compared to the untreated control: topical line-on (test compound 60 mg/kg in NMP); for Flea efficacy (%) compared to the untreated control: topical line-on, test compound 60 mg/kg in NMP
From the text: as §1, §2

[2] = tested on: cat flea (Ctenocephalides felis Bouche); experiment: In vivo evaluation against artificial infestations with cat fleas on mice; details: CD-1 mouse, 10 mg/kg oral in propylene glycol/glycerol formal (60:40), fleas applied 2 hours after dosing, evaluated 48 hours after flea application
Experimental: In vivo Evaluation Against Artificial Infestations With Cat Fleas (C. felis) on Mice
For evaluating control of the cat flea (Ctenocephalides felis Bouche), a CD-1® mouse (about 30 g, male, obtained from Charles River Laboratories, Wilmington, Mass.) was orally dosed with test compound in an amount of 10 mg/kg solubilized in propylene glycol/glycerol formal (60:40). Two hours after oral administration of the test compound, approximately 8 to 16 adult fleas were applied to each mouse. The fleas were then evaluated for mortality 48 hours after flea application to the mouse. 3-bromo-1-(3-chloro-2-pyridinyl)-N-[4-cyano-2-methyl-6-[(methylamino)carbonyl]phenyl]-1H-pyrazole-5-carboxamide caused 45% mortality.

[3] = 200 ppb in bovine blood, exposure time 7 hr
[4] = 200 ppb in bovine blood, exposure time 17 hr
[5] = 200 ppb in bovine blood, exposure time 24 hr
[6] = 400 ppb in bovine blood, exposure time 7 hr
[7] = 400 ppb in bovine blood, exposure time 17 hr
[8] = 400 ppb in bovine blood, exposure time 24 hr
[9] = 600 ppb in bovine blood, exposure time 7 hr
[10] = 600 ppb in bovine blood, exposure time 17 hr
[11] = 600 ppb in bovine blood, exposure time 24 hr

22,23-dihydroavermectin B1 [Ivermectin, reference compound]
% Adult mortality (adult H. irritans exigua; [3]): 78.5% | % Adult mortality (adult H. irritans exigua; [4]): 91.8% | % Adult mortality (adult H. irritans exigua; [5]): 93.1% | % Adult mortality (adult H. irritans exigua; [6]): 80.1% | % Adult mortality (adult H. irritans exigua; [7]): 94.2% | % Adult mortality (adult H. irritans exigua; [8]): 98.0% | % Adult mortality (adult H. irritans exigua; [9]): 86.0% | % Adult mortality (adult H. irritans exigua; [10]): 95.5% | % Adult mortality (adult H. irritans exigua; [11]): 100.0%

CNC(=O)c1cc(C#N)cc(C)c1NC(=O)c1cc(Br)nn1-c1ncccc1Cl [Test compound, 3-bromo-1-(3-chloro-2-pyridinyl)-N-[4-cyano-2-methyl-6-[(methylamino)carbonyl]phenyl]-1H-pyrazole-5-carboxamide]
Tick efficacy higher than the ADVANTIX ([1]; 48 hours after treatment, difference to ADVANTIX): 30% | Tick efficacy compared to the negative control ([1]; topical line-on (test compound 60 mg/kg in NMP), 48 hours after treatment): 74% | Tick efficacy compared to the untreated control ([1]; topical line-on (test compound 60 mg/kg in NMP), 9 days post-treatment): over 94.9% | Tick efficacy compared to the untreated control ([1]; topical line-on (test compound 60 mg/kg in NMP), 16 days post-treatment): 90.5% | Tick efficacy compared to the untreated control ([1]; topical line-on (test compound 60 mg/kg in NMP), 23 days post-treatment): 90.6% | Tick efficacy compared to the untreated control ([1]; topical line-on (test compound 60 mg/kg in NMP), 30 days post treatment): 86.2% | Tick efficacy (%) compared to the untreated control ([1]; Day 2): 74.0% | Tick efficacy (%) compared to the untreated control ([1]; Day 9): 94.9% | Tick efficacy (%) compared to the untreated control ([1]; Day 16): 95.0% | Tick efficacy (%) compared to the untreated control ([1]; Day 23): 90.6% | Tick efficacy (%) compared to the untreated control ([1]; Day 29): 86.2% | % Adult mortality (adult H. irritans exigua; [3]): 77.3% | % Adult mortality (adult H. irritans exigua; [4]): 78.8% | % Adult mortality (adult H. irritans exigua; [5]): 80.3% | % Adult mortality (adult H. irritans exigua; [6]): 78.8% | % Adult mortality (adult H. irritans exigua; [7]): 89.8% | % Adult mortality (adult H. irritans exigua; [8]): 94.9% | % Adult mortality (adult H. irritans exigua; [9]): 80.5% | % Adult mortality (adult H. irritans exigua; [10]): 94.7% | % Adult mortality (adult H. irritans exigua; [11]): 96.5% | Flea efficacy compared to the untreated control (Cat Fleas (C. felis); 2 days post-treatment): over 99.5% | Flea efficacy compared to the untreated control (Cat Fleas (C. felis); 9 days post-treatment): over 99.5% | Flea efficacy compared to the untreated control (Cat Fleas (C. felis); 16 days post-treatment): over 99.5% | Flea efficacy compared to the untreated control (Cat Fleas (C. felis); 30 days post-treatment): 97.3% | Flea efficacy (%) compared to the untreated control (Cat Fleas (C. felis); Day 2): 99.6% | Flea efficacy (%) compared to the untreated control (Cat Fleas (C. felis); Day 9): 99.7% | Flea efficacy (%) compared to the untreated control (Cat Fleas (C. felis); Day 16): 99.7% | Flea efficacy (%) compared to the untreated control (Cat Fleas (C. felis); Day 23): 98.7% | Flea efficacy (%) compared to the untreated control (Cat Fleas (C. felis); Day 29): 97.3% | flea mortality [2]: 45%

Source: patent US20090036497A1, “ECTOPARASITE CONTROL METHOD” (priority 2007, published 2009)
